Assay results from patent publication US20080103205A1, “Pesticidal compositions and methods of use” (priority 2006, published 2008).

Key:
Assay type in all cases: in vivo
[1] = tested on: Meloidogyne incognita eggs; assay: M. incognita egg hatching
Method: Meloidogyne incognita (plant parasitic nematode) eggs were collected from tomato plant roots and were suspended in water. The solution was either diluted or concentrated to adjust the egg load to about 5000/ml. AT stock solutions prepared in DMSO and 300 ul of test solution was placed in a well, along with 20 ul of aqueous solution containing eggs. The number of eggs in 20 ul solution ranged from 115 to 143 (n=10). Each treatment (2, 5, 10, 20, or 40 ppm) was replicated 5 times. Microplates were sealed with Parafilm™ and incubated at room temperature. Similar tests conducted with 0.2% DMSO alone served as controls. Egg hatching was monitored at 24, 72, 120, and 168 hr after incubation. Both moving and non-moving nematodes were counted to arrive at the number of eggs hatched. Proportion of egg hatch was calculated as the number of juveniles divided by total number of eggs.
VSCC blockers effect on M. incognita egg hatching is shown in the following tables where % hatched is rounded to the nearest percentage point and where “% C*” is % hatch, normalized to control.

Drosophila melanogaster = assay: Toxicity against adult Drosophila melanogaster, sugar solution feeding
Method: Toxicity tests were conducted using mixed sex adults of D. melanogaster maintained on artificial diet in the department of entomology, Virginia Tech. Test concentrations of 6.25, 12.5, 25, 50 or 100 ppm were prepared in 0.2% dimethyl sulfoxide (DMSO) for DIDS, 9-AC, NPPB, and IAA-94. The above final concentrations were obtained after mixing them in 10 ml of 10% sugar solution. Similar preparations with 0.2% DMSO alone served as controls. One end of a cotton wick was dipped in 0.5 ml of sugar solution and placed on the glass vial containing 10 adult flies of mixed sex. Each concentration of test chemical had 5 replications. Mortality counts of flies were taken 24, 48, and 72 hrs after treatment. Insects without movement upon probing were considered dead. LC50 values and confidence intervals for each chemical were estimated using POLO PLUS software program. The data provided in Tables 3-A and 3-B below confirm that AT blockers are toxic to insects in acute exposures.

[2] = tested on: European corn borer (Ostrinia nubilalis); assay: Diet surface test on European corn borer larvae (2nd instar)
Method: Concentrations of 6.25, 12.5, 25, or 50 ppm AT blocker were prepared in 95% ethyl alcohol (EtOH). 95% EtOH alone served as control. European corn borer (ECB) diet prepared from the powdered diet supplied by French Agricultural Research, Inc. Diet (1-2 ml) was poured into small cups and allowed to cool to room temperature. Test solution (100 ul) was placed onto the diet surface and allowed to evaporate the solvent. Each concentration of chemical had 2 sets of 10 cups each. One late 2nd instar larva was placed in each cup and covered with lid having perforations for aeration. Cups were placed in an incubator for 7 days at 25±1° C. and 70±5% RH. After seven days, the weight of each larva was taken and any mortality was recorded. Then, the surviving larvae were transferred to fresh diet cups holding sufficient diet (5-6 ml) without chemicals and incubated at 25±1° C. and 70±5% RH until pupation. Weights of larvae were taken 14 days after transferring to fresh diet (21 days after start of treatment). Finally, the number of days until pupation was recorded.
Anion transporters caused larval death and a reduction in weight gain within 7 days exposure. The effect persisted for 2 weeks time on untreated diet, but total time to pupation was relatively unaffected.

[3] = 6.25 ppm, 7 days after feeding, 10 larvae treated
[4] = 6.25 ppm, 21 days after feeding
[5] = 6.25 ppm, 21 days after feeding, 10 larvae treated
[6] = 12.5 ppm, 7 days after feeding, 10 larvae treated
[7] = 12.5 ppm, 21 days after feeding
[8] = 12.5 ppm, 21 days after feeding, 10 larvae treated
[9] = 25 ppm, 7 days after feeding, 10 larvae treated
[10] = 25 ppm, 21 days after feeding, 10 larvae treated
[11] = 50 ppm, 7 days after feeding, 10 larvae treated

CC1(C2CCCC2)Cc2cc(OCC(=O)O)c(Cl)c(Cl)c2C1=O (single isomer, unassigned; (+)) [IAA-94, (+)(2-cyclopentyl-6,7-dichloro-2-methyl-1-oxo-5-indanyloxy) acetic acid]
Eggs Hatched % ([1]; 2 ppm, 24 hr): 10% | Eggs Hatched % C* (% hatch, normalized to control) ([1]; 2 ppm, 24 hr): 100% | Eggs Hatched No. ([1]; 2 ppm, 24 hr): 70 | Eggs Hatched % ([1]; 2 ppm, 72 hr): 15% | Eggs Hatched % C* (% hatch, normalized to control) ([1]; 2 ppm, 72 hr): 94% | Eggs Hatched No. ([1]; 2 ppm, 72 hr): 97 | Eggs Hatched % ([1]; 2 ppm, 120 hr): 19% | Eggs Hatched % C* (% hatch, normalized to control) ([1]; 2 ppm, 120 hr): 86% | Eggs Hatched No. ([1]; 2 ppm, 120 hr): 130 | Eggs Hatched % ([1]; 2 ppm, 168 hr): 24% | Eggs Hatched % C* (% hatch, normalized to control) ([1]; 2 ppm, 168 hr): 86% | Eggs Hatched No. ([1]; 2 ppm, 168 hr): 161 | Eggs Hatched % ([1]; 5 ppm, 24 hr): 10% | Eggs Hatched % C* (% hatch, normalized to control) ([1]; 5 ppm, 24 hr): 100% | Eggs Hatched No. ([1]; 5 ppm, 24 hr): 66 | Eggs Hatched % ([1]; 5 ppm, 72 hr): 13% | Eggs Hatched % C* (% hatch, normalized to control) ([1]; 5 ppm, 72 hr): 81% | Eggs Hatched No. ([1]; 5 ppm, 72 hr): 96 | Eggs Hatched % ([1]; 5 ppm, 120 hr): 19% | Eggs Hatched % C* (% hatch, normalized to control) ([1]; 5 ppm, 120 hr): 86% | Eggs Hatched No. ([1]; 5 ppm, 120 hr): 128 | Eggs Hatched % ([1]; 5 ppm, 168 hr): 22% | Eggs Hatched % C* (% hatch, normalized to control) ([1]; 5 ppm, 168 hr): 79% | Eggs Hatched No. ([1]; 5 ppm, 168 hr): 161 | Eggs Hatched % ([1]; 10 ppm, 24 hr): 9% | Eggs Hatched % C* (% hatch, normalized to control) ([1]; 10 ppm, 24 hr): 90% | Eggs Hatched No. ([1]; 10 ppm, 24 hr): 64 | Eggs Hatched % ([1]; 10 ppm, 72 hr): 13% | Eggs Hatched % C* (% hatch, normalized to control) ([1]; 10 ppm, 72 hr): 81% | Eggs Hatched No. ([1]; 10 ppm, 72 hr): 88 | Eggs Hatched % ([1]; 10 ppm, 120 hr): 18% | Eggs Hatched % C* (% hatch, normalized to control) ([1]; 10 ppm, 120 hr): 82% | Eggs Hatched No. ([1]; 10 ppm, 120 hr): 112 | Eggs Hatched % ([1]; 10 ppm, 168 hr): 20% | Eggs Hatched % C* (% hatch, normalized to control) ([1]; 10 ppm, 168 hr): 71% | Eggs Hatched No. ([1]; 10 ppm, 168 hr): 134 | Eggs Hatched % ([1]; 20 ppm, 24 hr): 8% | Eggs Hatched % C* (% hatch, normalized to control) ([1]; 20 ppm, 24 hr): 80% | Eggs Hatched No. ([1]; 20 ppm, 24 hr): 60 | Eggs Hatched % ([1]; 20 ppm, 72 hr): 12% | Eggs Hatched % C* (% hatch, normalized to control) ([1]; 20 ppm, 72 hr): 75% | Eggs Hatched No. ([1]; 20 ppm, 72 hr): 82 | Eggs Hatched % ([1]; 20 ppm, 120 hr): 15% | Eggs Hatched % C* (% hatch, normalized to control) ([1]; 20 ppm, 120 hr): 68% | Eggs Hatched No. ([1]; 20 ppm, 120 hr): 96 | Eggs Hatched % ([1]; 20 ppm, 168 hr): 17% | Eggs Hatched % C* (% hatch, normalized to control) ([1]; 20 ppm, 168 hr): 61% | Eggs Hatched No. ([1]; 20 ppm, 168 hr): 112 | Eggs Hatched % ([1]; 40 ppm, 24 hr): 8% | Eggs Hatched % C* (% hatch, normalized to control) ([1]; 40 ppm, 24 hr): 80% | Eggs Hatched No. ([1]; 40 ppm, 24 hr): 55 | Eggs Hatched % ([1]; 40 ppm, 72 hr): 11% | Eggs Hatched % C* (% hatch, normalized to control) ([1]; 40 ppm, 72 hr): 69% | Eggs Hatched No. ([1]; 40 ppm, 72 hr): 69 | Eggs Hatched % ([1]; 40 ppm, 120 hr): 13% | Eggs Hatched % C* (% hatch, normalized to control) ([1]; 40 ppm, 120 hr): 59% | Eggs Hatched No. ([1]; 40 ppm, 120 hr): 82 | Eggs Hatched % ([1]; 40 ppm, 168 hr): 14% | Eggs Hatched % C* (% hatch, normalized to control) ([1]; 40 ppm, 168 hr): 50% | Eggs Hatched No. ([1]; 40 ppm, 168 hr): 92 | LC50 (ppm) (Drosophila melanogaster; 48 hr): 170.05 ppm | LC50 (ppm) (Drosophila melanogaster; 72 hr): 115.67 ppm | Mean wt of survived larvae ([2]; 6.25 ppm, 7 days after feeding): 45.52 mg | Mean wt of survived larvae, mg ([2]; 6.25 ppm, 7 days after feeding): 44.64 (10) mg | No. dead ([2]; 6.25 ppm, 7 days after feeding, 10 larvae): 0 | # surviving [2, 3]: 10 | No. dead [2, 3]: 0 | Mean wt of survived larvae [2, 4]: 138.56 mg | Mean wt of survived larvae, mg [2, 4]: 150.90 (10) mg | No. dead ([2]; 6.25 ppm, 21 days after feeding, 10 larvae): 0 | # surviving [2, 5]: 10 | No. dead [2, 5]: 0 | Mean wt of survived larvae ([2]; 12.5 ppm, 7 days after feeding): 33.62 mg | Mean wt of survived larvae, mg ([2]; 12.5 ppm, 7 days after feeding): 34.40 (10) mg | No. dead ([2]; 12.5 ppm, 7 days after feeding, 10 larvae): 0 | # surviving [2, 6]: 10 | No. dead [2, 6]: 0 | Mean wt of survived larvae [2, 7]: 108.84 mg | Mean wt of survived larvae, mg [2, 7]: 115.14 (10) mg | No. dead ([2]; 12.5 ppm, 21 days after feeding, 10 larvae): 0 | # surviving [2, 8]: 10 | No. dead [2, 8]: 0 | Mean wt of survived larvae ([2]; 25 ppm, 7 days after feeding): 25.97 mg | Mean wt of survived larvae, mg ([2]; 25 ppm, 7 days after feeding): 23.96 (10) mg | No. dead ([2]; 25 ppm, 7 days after feeding, 10 larvae): 0 | # surviving [2, 9]: 8 | No. dead [2, 9]: 2 | Mean wt of survived larvae ([2]; 25 ppm, 21 days after feeding): 4.85 mg | Mean wt of survived larvae, mg ([2]; 25 ppm, 21 days after feeding): 65.60 (8) mg | No. dead ([2]; 25 ppm, 21 days after feeding, 10 larvae): 2 | # surviving [2, 10]: 8 | No. dead [2, 10]: 2 | Mean wt of survived larvae ([2]; 50 ppm, 7 days after feeding): 11.90 mg | Mean wt of survived larvae, mg ([2]; 50 ppm, 7 days after feeding): 12.93 (6) mg | No. dead ([2]; 50 ppm, 7 days after feeding, 10 larvae): 4 | # surviving [2, 11]: 2 | No. dead [2, 11]: 8 | Mean wt of survived larvae ([2]; 50 ppm, 21 days after feeding): 0 mg | Mean wt of survived larvae, mg ([2]; 50 ppm, 21 days after feeding): 24.0 (2) mg | No. dead ([2]; 50 ppm, 21 days after feeding, 10 larvae): 8 | No. dead ([2]; 50 ppm, 21 days after feeding, 10 larvae treated): 10 | mortality at 6.25 ppm ([2]; Ostrinia nubilalis, 168 h, 6.25 ppm, 7 days after feeding): 0% | mortality at 12.5 ppm ([2]; Ostrinia nubilalis, 168 h, 12.5 ppm, 7 days after feeding): 0% | mortality at 6.25 ppm ([2]; Ostrinia nubilalis, 504 h, 6.25 ppm, 21 days after feeding): 0% | mortality at 12.5 ppm ([2]; Ostrinia nubilalis, 504 h, 12.5 ppm, 21 days after feeding): 0% | mortality at 25 ppm ([2]; Ostrinia nubilalis, 504 h, 25 ppm, 21 days after feeding): 20% | mortality at 50 ppm ([2]; Ostrinia nubilalis, 504 h, 50 ppm, 21 days after feeding): 80%
